# Data: ChEMBL document CHEMBL1201862, “PubChem BioAssay data set” (2004)
#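 Five compound concentrations were applied to cells in 96-well plates for 48 hours; endpoints were derived by simple linear interpolation of the resulting dose-response curve. GI50 is the concentration that inhibits growth by half.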 Active and inactive are the calls of the source. Rule as the data show it: active = GI50 up to about 1.1 µM and inactive = higher.
# Assays:
# Assay in all cases: NCI tumour cell line growth inhibition, 48 h
# [1] = system: DMS-114
# [2] = system: DMS-273
# [3] = system: KM-20L2
# [4] = system: M19-MEL
# [5] = system: RXF 631
# [6] = system: SNB-78
# [7] = system: XF498
# [8] = system: MDA-MB-231
# [9] = system: MDA-N
Structure (SMILES),GI50 [1],GI50 [2],GI50 [3],GI50 [4],GI50 [5],GI50 [6],GI50 [7],GI50 [8],GI50 [9]
CCOC(=O)COS(=O)(=O)C(F)(F)F,17.1 µM (inactive),18.4 µM (inactive),> 100 µM (inactive),> 100 µM (inactive),45.1 µM (inactive),> 100 µM (inactive),> 100 µM (inactive),,
O=C(Cc1ccccc1)N/N=C(/c1nc2ccc([N+](=O)[O-])cc2nc1O)C(O)c1ccco1 (configuration not stated),46.8 µM (inactive),,,> 100 µM (inactive),,> 100 µM (inactive),> 100 µM (inactive),,
Nc1c(C(=O)Nc2ccccc2)[n+]([O-])c2ccccc2[n+]1[O-],9.62 µM (inactive),20.6 µM (inactive),17.7 µM (inactive),15 µM (inactive),,16.9 µM (inactive),16.6 µM (inactive),,
COC(=O)/C(=C\c1ccc(N(CCC#N)CCC#N)cc1)NC(=O)c1cc([N+](=O)[O-])ccc1Cl,> 100 µM (inactive),> 100 µM (inactive),> 100 µM (inactive),> 100 µM (inactive),,> 100 µM (inactive),,,
O=C(Cn1ccnc1[N+](=O)[O-])NCc1ccc(F)cc1,> 100 µM (inactive),> 100 µM (inactive),> 100 µM (inactive),> 100 µM (inactive),> 100 µM (inactive),,> 100 µM (inactive),,
C=CCCCCCCCCCP(=O)(c1ccccc1)c1ccc2c(c1)OCCOCCOCCOCCO2 (configuration not stated),,15.1 µM (inactive),14.1 µM (inactive),18.4 µM (inactive),,19.1 µM (inactive),18.7 µM (inactive),,
C=C(CO)CC(/C=C(\C)CC/C=C(\C)CCl)OC(C)=O (configuration not stated),> 100 µM (inactive),> 100 µM (inactive),> 100 µM (inactive),> 100 µM (inactive),,> 100 µM (inactive),> 100 µM (inactive),,
Cc1ccc(NC(=O)CC/C(CC(=O)C(C)(C)C)=N/NC(=O)C[N+](C)(C)C)cc1C,> 100 µM (inactive),,> 100 µM (inactive),> 100 µM (inactive),,> 100 µM (inactive),,,
C[C@@H](NC1CCC[C@H]1O)c1ccccc1 (some centres not stated),> 100 µM (inactive),> 100 µM (inactive),> 100 µM (inactive),> 100 µM (inactive),,> 100 µM (inactive),5.66 µM (inactive),,
CCOP(=O)(OCC)C1CCCCOC1=O (configuration not stated),> 100 µM (inactive),> 100 µM (inactive),> 100 µM (inactive),> 100 µM (inactive),> 100 µM (inactive),> 100 µM (inactive),> 100 µM (inactive),,
CCN(CC)CCCC(C)Nc1ccnc2ccc3nn(C)nc3c12 (configuration not stated),,26.4 µM (inactive),33 µM (inactive),49 µM (inactive),,52.7 µM (inactive),,,
C1CN2CCN3CCN4CCN1[PH]243,> 100 µM (inactive),> 100 µM (inactive),> 100 µM (inactive),> 100 µM (inactive),,> 100 µM (inactive),> 100 µM (inactive),,
CCOc1ccc(NC(=O)C2=C(C)NC(C)=C(C(=O)Nc3ccc(OCC)cc3)C2c2ccc(O)c(OC)c2)cc1,56.5 µM (inactive),,> 100 µM (inactive),> 100 µM (inactive),53.5 µM (inactive),44.1 µM (inactive),18.5 µM (inactive),,
CN(C)CCCNC(=O)c1cccc2nc3ccccc3nc12,12.3 µM (inactive),9.91 µM (inactive),25.1 µM (inactive),6.58 µM (inactive),32.6 µM (inactive),14.3 µM (inactive),1.14 µM (inactive),,
COC(=O)C12C(=O)O[C@H](C)C1(O)C(C)C(=O)N2C (some centres not stated),> 100 µM (inactive),,,> 100 µM (inactive),,> 100 µM (inactive),0.662 µM (active),,
Cc1cc2c(cc1C)[n+]([O-])c(C(=O)CC(=O)C(=O)Nc1c(C(C)C)cccc1C(C)C)c(C)[n+]2[O-],> 100 µM (inactive),> 100 µM (inactive),> 100 µM (inactive),> 100 µM (inactive),,> 100 µM (inactive),> 100 µM (inactive),,
O=C(/C=C/c1ccc(Cl)c(Cl)c1)c1ccc(F)cc1,14.7 µM (inactive),12.5 µM (inactive),16.5 µM (inactive),18.2 µM (inactive),50 µM (inactive),20.7 µM (inactive),,,
CC1=C(C(=O)CC(=O)C(=O)Nc2ccccc2)Sc2ccccc2N1,> 100 µM (inactive),,> 100 µM (inactive),> 100 µM (inactive),> 100 µM (inactive),> 100 µM (inactive),> 100 µM (inactive),,
O=c1[nH]c(=O)n(C2CC(O)C(CO)O2)cc1OCCCc1ccccc1 (configuration not stated),,,,,,,,> 100 µM (inactive),> 100 µM (inactive)
CC1=C[C@@H](C)C[C@]2(C)CC[C@H](O2)[C@]23CC[C@](C)(C[C@H](O2)[C@@H]2O[C@@](C)(CC2=O)[C@@H](O)[C@H]2CC[C@@]4(CCC[C@@H](O4)[C@H](C)C(=O)O[C@H]4C[C@H]([C@]5(O)OCC[C@H](C)[C@@H]5O)O[C@H]4C=C1)O2)O3,,,,,,,,0.00528 µM (active),0.0233 µM (active)
CCOC(=O)c1cnccc1CC1(C#N)c2ccccc2C=CN1C(=O)c1ccccc1 (configuration not stated),,,,,,,,25.5 µM (inactive),18.1 µM (inactive)
CCCCCCCCCCCCCCCCCCNc1nc(=O)n(C2CC(O)C(COP(=O)(O)O)O2)cc1F (configuration not stated),,,,,,,,> 100 µM (inactive),> 100 µM (inactive)
BrC1(c2ccccc2)C[n+]2c(-c3ccccc3)cc(-c3ccccc3)cc2-c2ccccc21 (configuration not stated),,,,,,,,0.336 µM (active),0.327 µM (active)
N=c1oc2ccccc2cc1-c1nc2ccccc2c(=O)[nH]1,,,,,,,,29.3 µM (inactive),> 100 µM (inactive)

Structure (SMILES),GI50 [1],GI50 [2],GI50 [3],GI50 [4],GI50 [5],GI50 [6],GI50 [7],GI50 [8],GI50 [9]
CCCCCCNC(=O)CCN(C(=O)O)S(=O)(=O)c1ccc(NC(=O)c2ccccc2)cc1,20.4 µM (inactive),> 41 µM (inactive),> 100 µM (inactive),> 49.3 µM (inactive),,> 100 µM (inactive),> 100 µM (inactive),,
O=c1c2cc([N+](=O)[O-])ccc2n2n1CCCC2,,,,,,,,> 100 µM (inactive),> 100 µM (inactive)
OC12c3ccccc3C1CCCCC2N1CCCC1 (configuration not stated),> 100 µM (inactive),> 100 µM (inactive),> 100 µM (inactive),> 100 µM (inactive),,> 100 µM (inactive),,,
OCC(O)C(O)C(O)c1nn(-c2ccccc2)c2nc3cc(Cl)c(Cl)cc3nc12 (configuration not stated),31.6 µM (inactive),39.8 µM (inactive),37.2 µM (inactive),49.1 µM (inactive),,54.1 µM (inactive),23.4 µM (inactive),,
CSc1ncc2c(n1)-c1ccccc1OC2N1CCOCC1 (configuration not stated),,,,,,,,83.9 µM (inactive),> 100 µM (inactive)
CCCCSC1=N/C(=C\c2ccccc2O)C(Cl)=N1,,,,,,,,> 100 µM (inactive),> 100 µM (inactive)
CP1(=O)CCCCC1,> 100 µM (inactive),> 100 µM (inactive),> 100 µM (inactive),> 100 µM (inactive),,> 100 µM (inactive),> 100 µM (inactive),,
O=C1CC(C(OCc2ccccc2)C(OCc2ccccc2)C(COCc2ccccc2)OCc2ccccc2)CC(=O)N1 (configuration not stated),,,,,,,,71.4 µM (inactive),> 75 µM (inactive)
CNC(C#N)c1ccc(OC)cc1 (configuration not stated),,,,,,,,> 100 µM (inactive),33.1 µM (inactive)
Clc1ccc(CCN2CCOCC2)c(Cl)c1,> 100 µM (inactive),,> 100 µM (inactive),> 100 µM (inactive),> 100 µM (inactive),> 100 µM (inactive),> 100 µM (inactive),,
Cc1ccc(CCNC(=S)SCC(NC(=O)CCC(N)C(=O)O)C(=O)NCC(=O)O)cc1 (configuration not stated),0.873 µM (active),0.414 µM (active),2.12 µM (inactive),1.7 µM (inactive),2.2 µM (inactive),,1.49 µM (inactive),,
CN(C)CC1CC/C(=C\c2ccc(Cl)c(Cl)c2)C1=O (configuration not stated),> 47.8 µM (inactive),28.8 µM (inactive),> 34.5 µM (inactive),29.4 µM (inactive),,31.5 µM (inactive),> 46.8 µM (inactive),,
CCOC1CN=C(Nc2cccc3ccccc23)S1 (configuration not stated),,,,,,,,> 10 µM (inactive),> 10 µM (inactive)
Cn1c2c(c3ccccc31)C1CCCCC1C1C(=O)NC(=O)C21 (configuration not stated),50.4 µM (inactive),> 10 µM (inactive),,58.3 µM (inactive),41.4 µM (inactive),> 100 µM (inactive),44.7 µM (inactive),,
Cc1cc(N(CCC#N)CCC#N)ccc1/C=C(/NC(=O)/C=C/c1ccccc1)C(N)=O,> 100 µM (inactive),> 100 µM (inactive),> 100 µM (inactive),> 100 µM (inactive),,97.1 µM (inactive),39.7 µM (inactive),,
O=c1n(Cc2ccccc2)c(=O)n2c(=O)n(Cc3ccccc3)c(=O)n12,,,,,,,,> 100 µM (inactive),> 100 µM (inactive)
C/C(=N\NC(=S)N1CCCCC1)c1nc2cccnc2[nH]1,,,,,,,,3.81 µM (inactive),14.6 µM (inactive)
Cc1nc2ccccc2c(=O)n1/N=C(\N=N\c1ccc(Cl)cc1)c1ccc(N(C)C)cc1,38.9 µM (inactive),60.1 µM (inactive),> 100 µM (inactive),> 100 µM (inactive),,,14.6 µM (inactive),,
O=C(Nc1ccn(C2CC(O)C(CO)O2)c(=O)n1)c1ccccc1 (configuration not stated),,,,,,,,> 100 µM (inactive),> 100 µM (inactive)
O=C1c2ccccc2C(=O)N1n1c(Cc2ccccc2)n[nH]c1=O,,,,,,,,> 100 µM (inactive),> 100 µM (inactive)
CC1C(O)=C(O)c2ccccc2N1O (configuration not stated),,> 100 µM (inactive),> 100 µM (inactive),> 100 µM (inactive),> 100 µM (inactive),> 100 µM (inactive),> 100 µM (inactive),,
O=C1OCCC1(Cc1ccc(Cl)cc1)Cc1ccc(Cl)cc1,,,,> 100 µM (inactive),,42.3 µM (inactive),15.9 µM (inactive),,
O=C1c2ccccc2-c2nc(-c3ccncc3)cc3c2c1nc1ccccc13,,,,,,,,> 100 µM (inactive),17.4 µM (inactive)
